# Source: ChEMBL document CHEMBL2074229, “Inhibition of drug transport by genistein in multidrug-resistant cells expressing P-glycoprotein” (Biochem Pharmacol, 1997)
# Biological target: ATP-dependent translocase ABCB1 (Homo sapiens, UniProt P08183)
# Assay: TP_TRANSPORTER: inhibition of Rhodamine 123 efflux (R123: 10 uM, Genistein: 200 uM) in BALB/c-3T3-1000 cells (MDR1-transfected)
# Type: functional, cell-based
# Details: mouse, balb/c-3t3-1000, 200 µM
# Sequence of ATP-dependent translocase ABCB1 (P08183 whole entry): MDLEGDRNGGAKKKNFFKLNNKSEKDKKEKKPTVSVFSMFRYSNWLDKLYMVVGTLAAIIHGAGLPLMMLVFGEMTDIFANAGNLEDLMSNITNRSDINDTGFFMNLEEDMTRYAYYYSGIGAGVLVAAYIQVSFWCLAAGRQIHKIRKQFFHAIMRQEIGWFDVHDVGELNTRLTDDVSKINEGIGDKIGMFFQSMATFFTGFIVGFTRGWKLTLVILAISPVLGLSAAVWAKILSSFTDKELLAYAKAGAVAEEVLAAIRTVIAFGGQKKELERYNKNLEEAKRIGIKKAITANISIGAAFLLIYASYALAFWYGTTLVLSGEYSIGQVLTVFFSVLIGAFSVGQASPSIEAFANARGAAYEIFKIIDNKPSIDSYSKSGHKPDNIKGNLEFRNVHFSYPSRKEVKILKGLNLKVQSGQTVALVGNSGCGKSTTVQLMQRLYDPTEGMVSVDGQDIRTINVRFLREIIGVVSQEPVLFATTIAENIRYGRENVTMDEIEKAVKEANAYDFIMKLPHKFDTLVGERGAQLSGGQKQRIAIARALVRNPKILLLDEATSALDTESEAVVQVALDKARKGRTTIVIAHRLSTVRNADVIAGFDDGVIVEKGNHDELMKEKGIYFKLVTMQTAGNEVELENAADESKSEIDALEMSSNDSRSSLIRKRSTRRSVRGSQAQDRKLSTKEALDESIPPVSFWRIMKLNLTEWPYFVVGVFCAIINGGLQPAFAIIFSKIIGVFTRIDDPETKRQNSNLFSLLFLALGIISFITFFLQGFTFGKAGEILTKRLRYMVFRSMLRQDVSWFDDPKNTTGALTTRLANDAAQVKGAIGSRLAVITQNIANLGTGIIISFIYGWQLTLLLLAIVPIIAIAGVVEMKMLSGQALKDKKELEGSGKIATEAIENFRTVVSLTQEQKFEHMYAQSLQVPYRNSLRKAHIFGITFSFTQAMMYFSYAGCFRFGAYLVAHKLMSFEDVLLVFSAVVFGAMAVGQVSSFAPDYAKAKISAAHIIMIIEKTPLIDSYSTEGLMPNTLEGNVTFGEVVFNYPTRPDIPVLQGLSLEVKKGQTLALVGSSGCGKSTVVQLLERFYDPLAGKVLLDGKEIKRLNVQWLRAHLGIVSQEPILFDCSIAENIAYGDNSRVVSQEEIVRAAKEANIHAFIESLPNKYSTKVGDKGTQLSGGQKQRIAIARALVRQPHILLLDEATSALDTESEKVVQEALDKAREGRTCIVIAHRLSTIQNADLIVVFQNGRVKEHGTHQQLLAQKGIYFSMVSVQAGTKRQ
smiles,measurement,value
O=c1c(-c2ccc(O)cc2)coc2cc(O)cc(O)c12 [GENISTEIN],Inhibition,inhibitor [50-60 % inhibition]
